# From paper PMC12591484 (PLOS One, 2025)
# Marks after values point to notes of the source that are not given here.
# Key:
# [1] = test system: α1β3γ2L GABAA receptors, substituted cysteine at β3M227 (β3– M1); parameters: key: +: Mutant-function studies are deemed positive when bulky mutations (mostly tryptophans) at the site significantly reduce positive modulation by anesthetics; -: Negative results are indicated by “–“ symbols; conditions: previously reported; cited from earlier work
# [2] = target: T1, α1M236Cβ3γ2L GABAA receptors (Homo sapiens, UniProt P14867+P18507+P28472, M263C); experiment: Drug protection from pCMBS modification (SCAMP); format: cell-based; parameters: key: +: SCAMP is Substituted Cysteine Modification and Protection and is positive when adding anesthetic to cysteine modifier significantly reduces persistent post-exposure effects due to covalent modification; -: Negative results are indicated by “–“ symbols; conditions: results of this study (*); some cells also cite [9]
# T1 construct: expressed in transfected cells; host or cells: Xenopus oocytes injected with capped mRNA, 1α:1β:5γ
# Description: (§1) Experiments were performed in ND-96 buffer at room temperature (20–22°C). Oocytes were placed in a low-volume (30µl) flow chamber and impaled with borosilicate microelectrodes filled with 3M KCl (resistance 0.5–3 MΩ) and voltage-clamped at −50 mV (model OC-725C; Warner Instruments, Hamden, CT, USA). Superfusate solutions in ND-96 were delivered at 2 ml/min from glass syringe reservoirs via computer-controlled valves (VC-8; Warner Instruments), a micro-manifold (ALA-VM8; ALA Scientific Instruments, Farmingdale, NY, USA), and PTFE tubing. Currents were digitized at 200 Hz on a computer running ClampEx v8.0 software (Molecular Devices, San Jose, CA, USA). Digitized traces were filtered with a 10-Hz low-pass Bessel function, leak corrected and analyzed for peak amplitude off-line using Clampfit v8 software (Molecular Devices).
# (§2) Drug protection from pCMBS modification was assessed under pCMBS exposure conditions that produced approximately half of the maximal modification ratio for each mutant receptor, and a least a value of 3. This approach balanced the magnitude of functional modification signals (smaller with less pCMBS exposure) against the challenge of using a reversibly bound ligand to competitively block an irreversible covalent cysteine-modifying reaction. […] Each oocyte was used in a single SCAMP experiment. […] Etomidate was used as a positive control for anesthetic protection in α1M236C and β3M286C mutants and as a negative control in α1S270C, α1A291C, β3L231C, γ2S301C, γ2I242C, and γ2L246C mutants. R-mTFD-MPAB was used as a positive control in α1S270C, α1A291C, β3L231C, and γ2LS301C mutants and as a negative control in α1M236C and β3M286C mutants. For each cysteine mutant and protective drug combination, five oocytes were studied.
# (§3) Non-linear least squares fits and statistical analyses were performed in Prism 10.4.0. (GraphPad Software, San Diego, CA, USA). […] Protection (steric inhibition of pCMBS modification) was inferred when anesthetics produced significant reductions in modification ratios relative to control (no anesthetic) values. The statistical significance threshold was p < 0.05.
# [3] = target: T2, α1β3γ2S301C GABAA receptors (Homo sapiens, UniProt P14867+P18507+P28472, S340C); experiment: Drug protection from pCMBS modification (SCAMP); format: cell-based; parameters: key: +: SCAMP is Substituted Cysteine Modification and Protection and is positive when adding anesthetic to cysteine modifier significantly reduces persistent post-exposure effects due to covalent modification; -: Negative results are indicated by “–“ symbols; conditions: results of this study (*)
# T2 construct: expressed in transfected cells; host or cells: Xenopus oocytes injected with capped mRNAs mixed 1α:1β:5γ
# T2 sequence (P14867 28-456): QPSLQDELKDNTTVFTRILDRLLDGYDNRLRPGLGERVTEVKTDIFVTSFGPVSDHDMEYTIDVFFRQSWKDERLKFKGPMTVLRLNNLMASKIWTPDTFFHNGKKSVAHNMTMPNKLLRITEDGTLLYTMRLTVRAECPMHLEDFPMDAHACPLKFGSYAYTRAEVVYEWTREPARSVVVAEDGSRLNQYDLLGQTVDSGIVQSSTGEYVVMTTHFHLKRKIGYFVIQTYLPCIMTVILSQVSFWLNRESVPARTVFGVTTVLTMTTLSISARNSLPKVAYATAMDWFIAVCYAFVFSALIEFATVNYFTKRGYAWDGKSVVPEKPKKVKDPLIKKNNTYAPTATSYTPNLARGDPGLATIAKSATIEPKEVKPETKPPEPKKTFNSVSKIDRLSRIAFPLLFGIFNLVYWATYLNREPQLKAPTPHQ
# T2 sequence (P28472 26-473): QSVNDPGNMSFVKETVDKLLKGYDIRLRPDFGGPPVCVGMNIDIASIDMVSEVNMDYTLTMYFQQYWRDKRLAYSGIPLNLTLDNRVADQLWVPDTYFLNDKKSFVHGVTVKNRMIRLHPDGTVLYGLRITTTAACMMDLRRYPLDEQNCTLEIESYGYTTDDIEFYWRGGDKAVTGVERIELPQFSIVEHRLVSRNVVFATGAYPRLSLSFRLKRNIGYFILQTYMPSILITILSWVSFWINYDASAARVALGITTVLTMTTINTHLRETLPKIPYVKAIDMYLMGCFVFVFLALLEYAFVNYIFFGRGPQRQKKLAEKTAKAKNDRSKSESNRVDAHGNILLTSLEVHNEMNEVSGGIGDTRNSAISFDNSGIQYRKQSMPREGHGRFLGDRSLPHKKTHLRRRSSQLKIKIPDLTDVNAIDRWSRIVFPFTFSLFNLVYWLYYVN
# T2 sequence (P18507 40-475 S340C): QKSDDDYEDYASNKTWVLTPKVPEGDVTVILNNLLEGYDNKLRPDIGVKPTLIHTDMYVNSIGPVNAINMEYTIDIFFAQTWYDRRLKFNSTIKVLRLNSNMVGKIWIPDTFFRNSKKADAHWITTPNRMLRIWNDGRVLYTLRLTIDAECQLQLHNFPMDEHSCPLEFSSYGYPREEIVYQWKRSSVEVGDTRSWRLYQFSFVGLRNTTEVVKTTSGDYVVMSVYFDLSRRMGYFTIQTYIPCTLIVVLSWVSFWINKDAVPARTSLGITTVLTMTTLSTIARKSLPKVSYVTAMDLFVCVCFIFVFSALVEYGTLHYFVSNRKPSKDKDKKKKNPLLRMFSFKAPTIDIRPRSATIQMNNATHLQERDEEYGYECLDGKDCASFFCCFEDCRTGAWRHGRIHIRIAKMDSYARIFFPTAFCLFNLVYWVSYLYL
# Description: as §1, §2, §3
# T1 sequence (P14867 28-456 M263C, one chain of several): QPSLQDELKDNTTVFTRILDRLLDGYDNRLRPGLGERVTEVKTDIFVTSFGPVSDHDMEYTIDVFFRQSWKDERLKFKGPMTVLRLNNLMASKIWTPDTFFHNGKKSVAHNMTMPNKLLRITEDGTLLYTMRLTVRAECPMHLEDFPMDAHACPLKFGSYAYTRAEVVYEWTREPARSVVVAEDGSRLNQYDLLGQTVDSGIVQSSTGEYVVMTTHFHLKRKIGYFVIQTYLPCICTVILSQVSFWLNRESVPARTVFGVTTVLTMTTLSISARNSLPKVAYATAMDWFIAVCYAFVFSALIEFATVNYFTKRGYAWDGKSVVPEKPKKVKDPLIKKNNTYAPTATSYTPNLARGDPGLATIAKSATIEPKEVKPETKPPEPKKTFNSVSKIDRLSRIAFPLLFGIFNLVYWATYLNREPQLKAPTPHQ
# T1 sequence (P18507 40-475, one chain of several): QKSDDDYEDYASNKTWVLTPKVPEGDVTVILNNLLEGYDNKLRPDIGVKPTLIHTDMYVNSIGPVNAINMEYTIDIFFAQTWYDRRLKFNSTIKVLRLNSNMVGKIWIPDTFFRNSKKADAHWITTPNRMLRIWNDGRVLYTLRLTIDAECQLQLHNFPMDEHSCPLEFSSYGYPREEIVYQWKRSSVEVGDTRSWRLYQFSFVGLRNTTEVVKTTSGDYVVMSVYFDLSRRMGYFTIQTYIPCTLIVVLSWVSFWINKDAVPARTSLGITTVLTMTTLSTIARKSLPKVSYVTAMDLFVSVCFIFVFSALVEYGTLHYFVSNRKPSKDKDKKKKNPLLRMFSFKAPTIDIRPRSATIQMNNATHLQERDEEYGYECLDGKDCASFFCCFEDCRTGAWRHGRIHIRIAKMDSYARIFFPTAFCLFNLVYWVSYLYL
Compound,"SCAMP result, β3– (M1) M227 [1]","SCAMP result, α1– (M1) M236 [2]","SCAMP result, γ2+ (M2, M3) S301 [3]"
"CCOC(=O)c1cncn1[C@H](C)c1ccccc1 [etomidate, R-etomidate]",-^[9],"+^[9], *",
"C=CCC1(c2cccc(C3(C(F)(F)F)N=N3)c2)C(=O)NC(=O)N(C)C1=O (stereo not drawn) [R-mTFD-MPAB, R-5-allyl-1-methyl-5-(m-trifluoromethyl-diazirynylphenyl) barbituric acid]",,,+*
